Laboratory results: patent publication US7956088B2, “Synthetic lactone formulations and methods of use” (priority 2002, dated 2011)
Where “and” joins values, the source holds several entries; their conditions need not be identical. Equal entries are not always repeated. Where two headings read alike, the source gives them in different places.

How the values were obtained:
Sarcina lutea = experiment: Disc zone of inhibition / MIC tests No. 1-3, poured in plate, Mueler Hinton pH 8; type: cell-based; settings: for zone of inhibition at 10 µg/disc: Micrococcus luteus; for zone of inhibition at 10 µg/disc / P (mm), zone of inhibition: pattern disc with 10 μg
[1] = system: PC-4, LnCaP, CaSKi and C-33 tumor cell lines; settings: curves of 1000 μg LMSV-6 and 1000 μM tamoxifen; cell line not stated
Description: Four tumor cell lines, including human prostate cancers PC-4 ([…]) and LnCaP ([…]) and human cervical cancers CaSKi (human papilloma virus-(HPV) Type-16 positive] and C-33 (HPV-negative), were cultured in RPMI-10% bovine serum, glutamine and antibiotics at 5% CO2 an 37 degrees Celsius.

[2] = Rats infected in surgery, then treated; type: in vivo
Text: The high activity of these lactones against Escherichia coli, Klebsiela pneumoniae, Pseudomona aeruginosa, Staphylococo aureus, among others, and its low molecular weight, are advantageous.

[3] = system: LnCaP human prostate cancer cells; experiment: In vitro cytotoxicity / anti-proliferative activity; type: cell-based
Description: (§5) Four tumor cell lines, including human prostate cancers PC-4 (androgen-insensitive) and LnCaP (androgen-insensitive) and human cervical cancers CaSKi (human papilloma virus-(HPV) Type-16 positive] and C-33 (HPV-negative), were cultured in RPMI-10% bovine serum, glutamine and antibiotics at 5% CO2 an 37 degrees Celsius.
(§6) The lethal dosages for each cell line is listed below:

[4] = system: Salmonella typhimurium TA98; experiment: Ames test; type: cell-based; settings: 1 or 10 μg/mL
Description: (§1) This study was performed in accordance with the norms of USC 79/831, which establishes the guidelines for toxicological analytical methods.
(§2) The Ames test detects drug-induced ‘reverting mutations’ in previously mutated strains of Salmonella typhimurium, all of which have the rfa mutation that makes their cell membranes permeable to chemical agents. […] The presence of these mutations incapacitates the growth of these cells in a histidine-poor culture medium.
(§3) A drug is said to be mutagenic if it causes a greater than 2-fold increase in the number of colonies growing in histidine-poor medium.

[5] = system: Salmonella typhimurium TA100; experiment: Ames test; type: cell-based; settings: ≦100 μg/mL
Description: as §1, §2, §3

[6] = Study of adverse reactions in healthy volunteers; type: in vivo
Text: Nineteen healthy volunteers participated in the study. The age of the participants was between 21 and 40 years with an average of 30.5±7.2 years. The weight was between 150 and 190 pounds with a median of 163.2±14.3 pounds and the height was 1.8 to 2.1 meters with an average of 1.9±0.1 meters. The subjects were selected at random in agreement with the national and international criteria and norms established for investigations with human beings.
The state of health of the participants was established using several clinical evaluations, laboratory tests, electrocardiographs and thoracic radiographs. The functionality of the liver and the renal systems was verified by chemical-enzymatic studies. Likewise, for each participant we carried out tests of blood chemistry, pathology and urinalysis. For the females, the absence of pregnancy and/or lactation was verified by means of laboratory tests and gynecological evaluation.
Participants were divided into three groups selected at random (n=6): • Group I (placebo) received 2.0 ml of saline solution (ClNa^+, 0.9%), Group II, received 60 mg of LMSV-6 intramuscularly, and Group III (n=7) received 100 mg of LMSV-6 intramuscularly. The participants underwent several tests used to establish the basal values of the objective parameters of the analysis, which included:
Lab Studies: hemogram, blood chemistry, urinalysis and coproanalysis
Cardiovascular Function: arterial tension (TA), cardiac rhythm (RC), cardiac frequency (FC) and radial pulse (PR)
Pulmonary Functions: pulmonary respiration (VP) and respiratory frequency (FR)
Renal Function: urinary volume and urinary frequency (FU)
Sensory System: hearing, vision, smell, taste and sensory reflexes
Skin and/or Teguments: sensitivity, skin texture, temperature and musculo-skeletal tone
Neurovegetative Functions: salivary gland and sweat gland activities, gastrointestinal […] and visceral reflexes
Hypersensitivity Reactions: local sensitivity and systemic sensitivity.

Pseudomona aeruginosa = experiment: Microbiological sensitivity assay; type: cell-based
Text: Culture Medium for Pseudomona aeruginosa (USP 23 <81>) • Pancreatic digestive Caseine . . . 17.0 g • soy Papaine digestive . . . 3.0 g • Sodium Chloride . . . 5.0 g • Dibasic Potassium Phosphate . . . 2.5 g • Dextrose . . . 2.5 g • Agar . . . 20.0 g • Water to make about . . . 1.0 Lit • pH after sterilized 7.2±0.1

[7] = system: PC-4 human prostate cancer cells; experiment: In vitro cytotoxicity / anti-proliferative activity; type: cell-based
Description: as §5, §6

[8] = system: C-33 (HPV-negative) human cervical cancer cells; experiment: as above; type: cell-based
Description: as §5, §6

[9] = system: CaSKi (HPV Type-16 positive) human cervical cancer cells; experiment: as above; type: cell-based
Description: as §5, §6

Staphylococcus aureus = experiment: Microbiological sensitivity assay; type: cell-based
Text: Culture Medium for Staphylococo aureus (USP 23 <81>) • Peptone . . . 1.0 g • Digestive pancreatic Caseine . . . 4.0 g • Yeast Extract . . . 3.0 g • Beef Extract . . . 1.5 g • Dextrose . . . 1.0 g • Agar . . . 15.0 g • Water to make about . . . 1.0 Lit • pH after sterilized 6.6±0.1

Klebsiela pneumoniae = experiment: Microbiological sensitivity assay; type: cell-based
Text: (§4) Culture Medium for E. coli and k. neumoniae (according to USP 23 <81>) • Peptone . . . 5.0 g • Yeast Extract . . . 1.5 g • Beef Extract . . . 1.5 g • Sodium Chloride . . . 3.5 g • Dextrose . . . 1.0 g • Dibasic Potassium Phosphate . . . 3.68 g • Monobasic Potassium Phosphate . . . 1.32 g • Water To make about . . . 1.0 L • pH after sterilized 7.0±0.05 Antibacterial Activity Assays (Minimum Inhibitory Concentration, MIC)

Escherichia coli = experiment: Microbiological sensitivity assay; type: cell-based
Text: as §4

[10] = anti-proliferative activity after 72 hours

With `C=C1CCOC1=O` [LMSV-6, 4,5-dihydro-3-methylene-2[3H]furanone] the “S (mm), zone of inhibition” value (Sarcina lutea; Test No 2, 16.0 microliters/100 mL and 10 μL applied to sensibility disc) was 20 mm and 23 mm and 19 mm, the “S (mm), total of the three zones” value (Sarcina lutea; Test No 2, 16.0 microliters/100 mL, 10 μL applied, unlabelled sum line) was 62 mm and the “S (mm), zone of inhibition” value (Sarcina lutea; Test No. 1, 5 pure μL applied to sensibility disc) was 40 mm and 44 mm and 43 mm. The “S (mm), total of the three zones” value (Sarcina lutea; Test No. 1, 5 pure μL, unlabelled sum line) was 127 mm, the “Sample zone of inhibition relative to pattern” value (Sarcina lutea; Test No. 1, versus ceftriaxone 10 μg disc) was “three times bigger” and the “S (mm), zone of inhibition” value (Sarcina lutea; Test No. 3, 10 microliters/10 mL and 20 μL applied to sensibility disc) was 3 mm and 4 mm. The “S (mm), total of the three zones” value (Sarcina lutea; Test No. 3, 10 microliters/10 mL, 20 μL applied, unlabelled sum line) was 10 mm, the “Zone of Inhibition” value (Sarcina lutea; applied volume to disc 0.2 μL (MIC)) was 3.3 mm and the “Zone of Inhibition” value (Sarcina lutea; applied volume to disc 1.6 M) was 20.0 mm. For the same molecule, the “Zone of Inhibition” value (Sarcina lutea; applied volume to disc 5 μL) was 42.0 mm, the “Minimum Inhibitory Concentration (MIC)” value (Sarcina lutea; volume applied to disc) was about 0.2 µL and the “LD50 from curves of percent inhibition of proliferation” value [1] was 528 µM. The “Treatment of developed infection” value [2] was “successfully treated”, the “LD50” value ([3]; LNCaP, anti-proliferative activity after 72 hours) was 26.5 µM and the “LD50, cytotoxicity” value ([3]; LnCaP, after 4 hours) was > 1,982 μM. For the same molecule, the “Colony count in histidine-poor medium” value [4] was “did not increase normal colony count”, the “Colony count in histidine-poor medium” value [5] was “did not increase normal colony count” and the “Respiratory frequency (FR)” value ([6]; during the entire test) was 18 to 20 respirations per minute. For the same molecule, the Adverse reactions ([6]; human, in vivo) was “no evidence, sign or symptom of adverse reactions”, the “Allergic effects (reactivity), local and systemic” value ([6]; human, in vivo) was “not any manifestation of allergic reactions” and the “Cutaneous sensitivity and temperature” value ([6]; human, in vivo) was “did not provoke any change”. The Electrocardiograph pattern ([6]; human, in vivo) was “no variation”, the “Mental state and sensory acuteness (auditory, visual, olfactory, taste)” value ([6]; human, in vivo) was “did not provoke any alteration” and the “Respiratory mechanics and dynamics” value ([6]; human, in vivo) was “did not alter”. The “Tolerance of maximum dosage tested” value ([6]; human, in vivo) was “well tolerated”, the “Activity against Pseudomona aeruginosa” value (Pseudomona aeruginosa) was “high activity” and the “LD50, cytotoxicity” value ([7]; after 4 hours) was > 1,982 μM. The “LD50” value [7, 10] was 59.2 µM, the “LD50, cytotoxicity” value ([8]; after 4 hours) was 538 µM and the “LD50” value [8, 10] was 7.10 µM. For the same molecule, the “LD50, cytotoxicity” value ([9]; after 4 hours) was > 1,982 μM, the “LD50” value [9, 10] was 64.3 µM and the “Activity against Staphylococcus aureus” value (Staphylococcus aureus) was “high activity”. For the same molecule, the “Activity against Klebsiela pneumoniae” value (Klebsiela pneumoniae) was “high activity” and the “Activity against Escherichia coli” value (Escherichia coli) was “high activity”.

With `CO/N=C(\C(=O)N[C@@H]1C(=O)N2C(C(=O)O)=C(CSc3nc(=O)c(=O)[nH]n3C)CS[C@H]12)c1csc(N)n1` [Ceftriaxone, reference compound] the zone of inhibition at 10 µg/disc (Sarcina lutea; Test No 2, read-out: P (mm), zone of inhibition) was 18 mm, the zone of inhibition at 10 µg/disc (Sarcina lutea; Test No 2, unlabelled sum line, read-out: P (mm), total of the three zones) was 49 mm and the zone of inhibition at 10 µg/disc (Sarcina lutea; Test No. 1, read-out: P (mm), zone of inhibition) was 12 mm. For the same molecule, the zone of inhibition at 10 µg/disc (Sarcina lutea; Test No. 1, unlabelled sum line, read-out: P (mm), total of the three zones) was 43 mm, the zone of inhibition at 10 µg/disc (Sarcina lutea; Test No. 3, read-out: P (mm), zone of inhibition) was 18 mm and the zone of inhibition at 10 µg/disc (Sarcina lutea; Test No. 3, unlabelled sum line, read-out: P (mm), total of the three zones) was 49 mm. For the same molecule, the “P (mm), zone of inhibition” value (Sarcina lutea; Test No 2) was 16 mm and 15 mm, the “P (mm), zone of inhibition” value (Sarcina lutea; Test No. 1) was 15 mm and 16 mm and the “P (mm), zone of inhibition” value (Sarcina lutea; Test No. 3) was 16 mm and 15 mm.

With `CN(Cc1cnc2nc(N)nc(N)c2n1)c1ccc(C(=O)N[C@@H](CCC(=O)O)C(=O)O)cc1` [methotrexate, reference compound] the “Anti-proliferative activity against CaSKi” value [9] was “lacked activity”.

For `CC/C(=C(\c1ccccc1)c1ccc(OCCN(C)C)cc1)c1ccccc1` [Tamoxifen], the “LD50 from curves of percent inhibition of proliferation” value [1] was 345 µM.
